The text below walks through data of publication PMC3854609, “Biosynthesis of Sandalwood Oil: Santalum album CYP76F Cytochromes P450 Produce Santalols and Bergamotol” (PLoS ONE, 2013).

Holding throughout (assay): GCMS product formation, yeast microsomes
Format in all cases: biochemical

The target of one assay is T1, SaCYP76F41 (Santalum album, UniProt V5RFE4).
T1 construct: gene CYP76F41; full-length cDNA in pYEDP60, yeast BY4741 microsomes, co-expressed with S. album CPR2 (KC842188)
T1 sequence (V5RFE4 1-509): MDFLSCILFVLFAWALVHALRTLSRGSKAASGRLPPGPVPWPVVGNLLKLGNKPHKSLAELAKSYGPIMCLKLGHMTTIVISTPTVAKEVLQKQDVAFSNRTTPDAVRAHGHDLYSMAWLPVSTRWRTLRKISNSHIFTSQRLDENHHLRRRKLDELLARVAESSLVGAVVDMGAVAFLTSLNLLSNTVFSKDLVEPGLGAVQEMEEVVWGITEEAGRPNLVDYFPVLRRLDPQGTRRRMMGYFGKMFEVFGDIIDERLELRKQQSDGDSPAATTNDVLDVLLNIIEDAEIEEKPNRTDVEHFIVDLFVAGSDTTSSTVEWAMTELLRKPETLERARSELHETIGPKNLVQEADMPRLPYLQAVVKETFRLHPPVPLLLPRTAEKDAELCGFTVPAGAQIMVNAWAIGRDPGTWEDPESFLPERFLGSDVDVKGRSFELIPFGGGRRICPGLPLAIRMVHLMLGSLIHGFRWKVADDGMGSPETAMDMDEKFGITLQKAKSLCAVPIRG
The settings on record: substrate in mixture of santalenes and α-exo-bergamotene, 40 µM, NADPH 0.8 mM, pH 7.5, 30°C, 2 h, with SaCPR.

Another assay deals with T2, SaCYP76F39v2 (Santalum album, UniProt V5RGD0).
T2 construct: gene CYP76F39v2; full-length cDNA in pYEDP60, yeast BY4741 microsomes, co-expressed with S. album CPR2 (KC842188)
T2 sequence (V5RGD0 1-509): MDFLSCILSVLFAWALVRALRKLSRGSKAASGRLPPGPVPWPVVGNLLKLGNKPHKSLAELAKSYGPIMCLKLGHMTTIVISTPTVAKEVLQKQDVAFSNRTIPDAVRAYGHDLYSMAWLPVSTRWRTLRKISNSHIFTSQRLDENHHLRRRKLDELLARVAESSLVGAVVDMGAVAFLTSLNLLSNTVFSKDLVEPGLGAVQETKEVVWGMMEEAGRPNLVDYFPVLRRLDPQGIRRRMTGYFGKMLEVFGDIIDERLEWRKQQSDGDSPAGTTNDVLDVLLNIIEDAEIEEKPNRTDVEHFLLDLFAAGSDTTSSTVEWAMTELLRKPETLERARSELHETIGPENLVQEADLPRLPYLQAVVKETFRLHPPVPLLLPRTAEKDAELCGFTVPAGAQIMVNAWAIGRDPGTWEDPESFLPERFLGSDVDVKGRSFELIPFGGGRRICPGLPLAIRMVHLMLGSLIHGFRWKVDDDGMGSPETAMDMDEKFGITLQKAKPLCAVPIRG
To be noted: substrate in mixture of santalenes and α-exo-bergamotene, 40 µM, NADPH 0.8 mM, pH 7.5, 30°C, 2 h, with SaCPR.

A further assay has as its target T3, SaCYP76F37v1 (Santalum album, UniProt V5RGC8).
T3 construct: gene CYP76F37v1; full-length cDNA in pYEDP60, yeast BY4741 microsomes, co-expressed with S. album CPR2 (KC842188)
The settings on record: NADPH 0.8 mM; potassium phosphate pH 7.5; 30°C; 20 min; with SaCPR; TLC-enriched substrate; read-out: apparent Km.

A further assay addresses T4, SaCYP76F39v1 (Santalum album, UniProt V5RH69).
T4 construct: gene CYP76F39v1; full-length cDNA in pYEDP60, yeast BY4741 microsomes, co-expressed with S. album CPR2 (KC842188)
T4 sequence (V5RH69 1-509): T2 sequence (V5RGD0 1-509) with S9F, R21P, K22T, I103T, Y110H
The settings on record: NADPH 0.8 mM; potassium phosphate pH 7.5; 30°C; 20 min; with SaCPR; TLC-enriched substrate; read-out: apparent Km.

Where [1] appears, read: products (Z)- and (E)-α-santalol.
[2] abbreviates: products (Z)- and (E)-β-santalol.

The structures appear in SMILES notation. Numbering of substitutions follows the chain as printed.

T3 sequence (V5RGC8 1-509): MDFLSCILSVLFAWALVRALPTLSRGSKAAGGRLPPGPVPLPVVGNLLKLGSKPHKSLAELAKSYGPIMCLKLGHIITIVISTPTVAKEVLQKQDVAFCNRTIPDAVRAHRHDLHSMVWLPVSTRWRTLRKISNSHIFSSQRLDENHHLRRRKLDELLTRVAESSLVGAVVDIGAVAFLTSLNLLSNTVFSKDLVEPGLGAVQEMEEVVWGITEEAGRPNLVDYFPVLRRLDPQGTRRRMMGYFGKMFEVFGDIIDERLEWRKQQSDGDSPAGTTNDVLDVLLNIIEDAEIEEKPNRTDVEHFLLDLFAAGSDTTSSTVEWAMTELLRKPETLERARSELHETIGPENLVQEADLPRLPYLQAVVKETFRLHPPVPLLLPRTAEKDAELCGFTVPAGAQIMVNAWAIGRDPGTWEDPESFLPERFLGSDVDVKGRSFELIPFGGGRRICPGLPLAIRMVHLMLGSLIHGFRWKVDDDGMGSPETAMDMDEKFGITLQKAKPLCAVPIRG

On to `CC(C)=CCCC1(C)C2CC3C(C2)C31C` (stereo not drawn) [compound 1, α-santalene], for which the “GCMS product formation, yeast microsomes” value on SaCYP76F41 (setting [1]) and at SaCYP76F39v2 (setting [1]) was “gave product profiles similar to that observed with CYP76F39v1” each time.

On to `C=C1[C@@H]2CC[C@@H](C2)[C@@]1(C)CCC=C(C)C` [compound 4, β-santalene], for which the Km on SaCYP76F37v1 came out at 157 µM; on SaCYP76F39v1 it was 34.8 µM. Further, the “GCMS product formation, yeast microsomes” value on SaCYP76F41 (setting [2]) and at SaCYP76F39v2 (setting [2]) was “gave product profiles similar to that observed with CYP76F39v1” each time.
